Measurements: PMC2933614, “Quantitative in vitro and in vivo pharmacological profile of CE-178253, a potent and selective cannabinoid type 1 (CB1) Receptor Antagonist” (BMC Pharmacology, 2010)

Columns and labels:
[1] = Ten day DIO mouse food intake and body weight study; type: in vivo; settings: 10-day, DIO mice
Experimental: Male, 14 week old C57/Bl6/6J mice which had been maintained on a high fat diet (45% kcal from fat) for 6 weeks were selected for the DIO weight loss study. The animals body weights ranged at least 5 standard deviations from age-matched chow-fed control animals mean body weight. Mice were singly housed. The mean starting weight of all animals was 38.9 ± 0.5 g. On Day 0, mice were randomly assigned to treatment groups (n = 10 per group). Mice were dosed daily over 10 days, starting approximately at 30 minutes before the start of the 12 hr dark cycle. BW and food intake were recorded daily.
DIO mice were treated once daily with veh. (0.5% MC) or CE-178253 at 1 mg/kg or 3 mg/kg, p.o., in a 10-day study (Figures 8A and 8B). […] The lower dose of CE-178253 (1 mg/kg, p.o.) provided for a non-significant 8% reduction in FI, whereas the 3 mg/kg dose led to a significant 31% reduction in cumulative FI. As with other CB1 receptor antagonists, the food intake reduction was maximal over the first five days and declined over time (Figure 8A). However, FI reductions were still evident on the final day of dosing at the high dose. […] The high dose group (3 mg/kg) lost, on average 18% BW.

human CB1 receptor = biological target: T1, human CB1 receptor (Homo sapiens, UniProt P21554); test: Competition radioligand binding, human CB1
T1 construct: expressed in transfected cells
T1 sequence (P21554 whole entry): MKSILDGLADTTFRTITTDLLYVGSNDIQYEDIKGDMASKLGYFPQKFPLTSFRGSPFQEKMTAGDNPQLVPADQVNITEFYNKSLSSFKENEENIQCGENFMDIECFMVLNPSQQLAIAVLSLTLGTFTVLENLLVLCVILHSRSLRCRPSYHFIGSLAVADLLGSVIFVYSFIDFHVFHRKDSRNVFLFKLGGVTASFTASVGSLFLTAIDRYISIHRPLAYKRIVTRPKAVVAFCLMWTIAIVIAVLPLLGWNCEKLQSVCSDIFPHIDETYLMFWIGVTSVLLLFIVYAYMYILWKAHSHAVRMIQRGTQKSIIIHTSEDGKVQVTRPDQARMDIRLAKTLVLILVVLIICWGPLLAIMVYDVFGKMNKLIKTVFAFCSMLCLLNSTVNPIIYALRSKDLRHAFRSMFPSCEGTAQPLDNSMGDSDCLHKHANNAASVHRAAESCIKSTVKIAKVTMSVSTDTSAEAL
Experimental: (§1) HEK293 (CB1) or CHO (CB1 and CB2) cells (ATCC) were stably transfected with the human CB1 or CB2 receptors. Rat brain, and recombinant CB1 and CB2 and membranes were prepared as described. A Pierce™ BCA kit was used to determine protein concentrations.
(§2) 10 μg of membranes per well from human CB1 and CB 2 receptor transfected cells and rat brain was used in the assay. The plates were covered and placed in an incubator at 30°C for 60 min. At the end of the incubation period 125 μl of stop buffer (10% BSA plus TME) was added to the reaction plate. The plates were then harvested onto GF/C filter plates (Perkin Elmer Life Sciences) presoaked in BSA (5 mg/ml) plus TME. Each filter was washed twice with TME and dried overnight. In the morning the filters were counted on a Wallac Trilux™ counter.
(§3) Saturation and competition radioligand binding assays were used to characterize membranes prepared from human recombinant CB1 and CB2 and rat brain membranes.

[2] = Four day chow-fed rat food intake and body weight study; type: in vivo; settings: chow-fed rats
Experimental: CE-178253 was evaluated in 4-day chow-fed and DIO S-D rat studies. Male 12-16 week old S-D rats which had been maintained on regular chow were singly housed and acclimated to handling and dosing and two days of food intake were recorded to establish baseline food intake values before dosing was initiated. The animals were randomly sorted and assigned to treatment groups (n = 7-8 per group). Two studies were performed. In study 1 (age = 12 weeks) the mean starting weight of all animals was 370 ± 6 g. In study 2 (age = 16 weeks) the mean starting weight of all animals was 431 ± 11 g. Rats were dosed (2 mls/kg) with veh. or CE-178253 according to body weight. FI and BW were recorded daily.
CE-178253 was also evaluated in chow-fed rats in a 4 day FI and BW study. Rats were treated once daily with veh. (0.5% MC) or CE-178253. In the first study the same doses used in the DIO study were used to compare FI and BW efficacy. […] CE-178253 was clearly efficacious in acute food intake studies in chow-fed rats up to 12 hours (Figure 3). A comparison of 24 hr FI in chow-fed and DIO rats yielded different efficacy in response to CE-178253 treatment. The 1 mg/kg dose yielded an 8% decrease in 24 hr FI compared to veh-treated animals (p = 0.053). […] Initial and final body weights of veh-treated rats were 371 ± 7 g and 390 ± 7 g (n = 8), respectively. Initial and final body weights of 0.3 mg/kg CE-178253-treated rats were 374 ± 7 g and 388 ± 9 g, respectively. Initial and final body weights of 1 mg/kg CE-178253-treated rats were 373 ± 7 g and 390 ± 9 g, (respectively.
Based on the weak efficacy observed at the 0.3 and 1 mg/kg doses the study was repeated using higher doses of CE-178253 (Figures 7A and 7B). At 3 and 10 mg/kg (QD, p.o.) doses, statistically significant decreases in FI and BW were observed. Initial and final body weights of veh.-treated rats were 435 ± 11 g and 451 ± 12 g (n = 8), respectively, […]. Initial and final body weights of 3 mg/kg CE-178253-treated rats were 436 ± 9 g and 427 ± 9 g, respectively, a 2% decline. Initial and final body weights of 10 mg/kg CE-178253-treated rats were 435 ± 11 g and 430 ± 10 g, respectively, […]. […] Thus, as has been reported for other CB1 receptor antagonists it is likely that DIO rats are more sensitive to the anorectic and weight loss effect of CE-178253.

Core body temperature = type: in vivo, mouse; settings: C57BL/6J mice, n = 5 per group
Experimental: In a separate study, core body temperature was measured in C57BL/6J mice.

human CB2 receptor = biological target: T2, human CB2 receptor (Homo sapiens, UniProt P34972); test: Competition radioligand binding, human CB2
T2 construct: expressed in transfected cells
T2 sequence (P34972 whole entry): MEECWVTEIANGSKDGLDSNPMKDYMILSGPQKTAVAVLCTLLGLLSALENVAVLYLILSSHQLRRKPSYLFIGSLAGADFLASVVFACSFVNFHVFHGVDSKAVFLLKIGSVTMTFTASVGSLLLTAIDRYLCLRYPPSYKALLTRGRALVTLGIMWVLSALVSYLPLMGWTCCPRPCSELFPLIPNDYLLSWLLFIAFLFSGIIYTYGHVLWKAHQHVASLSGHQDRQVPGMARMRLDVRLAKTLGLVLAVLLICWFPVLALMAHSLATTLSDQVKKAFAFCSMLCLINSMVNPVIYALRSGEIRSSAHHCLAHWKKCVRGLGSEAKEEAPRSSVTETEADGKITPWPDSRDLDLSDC
Experimental: as §1, §2, §3

CCNC1(C(N)=O)CN(c2nc(C)nc3c(-c4ccc(Cl)cc4)c(-c4ccccc4Cl)nn23)C1 [CE-178253]
Reduction in cumulative FI ([1]; 1 mg/kg p.o. once daily, non-significant): 8%
BW lost, on average ([1]; 3 mg/kg p.o. once daily): 18%
Reduction in cumulative FI ([1]; 3 mg/kg p.o. once daily, significant): 31%
Concentration giving complete inhibition of [3H]SR141716A binding (human CB1 receptor; not shown): greater than 10 nM
Ki (human CB1 receptor; read-out: Ki, competition binding, hCB1): 0.00033 ± 7e-05 µM
Final body weight ([2]; 0.3 mg/kg, 4 day, initial 374 ± 7 g): 388 ± 9 g
Final body weight ([2]; 1 mg/kg, 4 day, initial 373 ± 7 g): 390 ± 9 g
Decrease in 24 hr FI compared to veh-treated animals ([2]; 1 mg/kg, p = 0.053): 8%
Decline in body weight, initial to final ([2]; 3 mg/kg QD p.o., 4 day): 2%
Final body weight ([2]; 3 mg/kg QD p.o., 4 day, initial 436 ± 9 g): 427 ± 9 g
Increase in body weight, initial to final ([2]; 10 mg/kg QD p.o., 4 day): 1%
Final body weight ([2]; 10 mg/kg QD p.o., 4 day, initial 435 ± 11 g): 430 ± 10 g
BW changes vs veh ([2]; 0.3 and 1 mg/kg dosing groups, 4 day): No statistically significant differences
Increase in core body temperature compared to veh (Core body temperature; 1 mg/kg): 0.7 ± 0.3 °C
Increase in core body temperature compared to veh (Core body temperature; 3 mg/kg): 1.2 ± 0.3 °C
Ki (human CB2 receptor; [3H]CP-55940, ± SEM (n), read-out: Ki, competition binding, hCB2): 15.7 ± 6.17 µM
Selectivity (hCB2 vs hCB1 binding Ki) (human CB2 receptor; difference in binding Ki values): > 30,000 fold
